Legend:
HeLa [1] = test: Antiproliferative activity against human HeLa cells after 24 hrs by MTT assay
[2] = Cytotoxicity against human macrophages assessed as cell growth inhibition; format: cell-based, Macrophage
HepG2 = test: Antiproliferative activity against human HepG2 cells after 24 hrs by MTT assay; conditions: HepG2, 24 h
MCF7 = test: Antiproliferative activity against human MCF7 cells after 24 hrs by MTT assay; conditions: MCF7, 24 h
HeLa [3] = test: Induction of apoptosis in human HeLa cells assessed as late apoptotic cells at 10 uM after 24 hrs by Annexin V FITC/propidium iodide staining based flow cytometric analysis (reference value: 10.17 %); format: functional
HeLa [4] = test: Induction of apoptosis in human HeLa cells assessed as late apoptotic cells at 50 uM after 24 hrs by Annexin V FITC/propidium iodide staining based flow cytometric analysis (reference value: 10.17 %); format: functional
HeLa [5] = test: Induction of apoptosis in human HeLa cells assessed as late apoptotic cells at 2 uM after 24 hrs by Annexin V FITC/propidium iodide staining based flow cytometric analysis (reference value: 10.17 %); format: functional
HeLa [6] = test: Induction of apoptosis in human HeLa cells assessed as early apoptotic cells at 2 uM after 24 hrs by Annexin V FITC/propidium iodide staining based flow cytometric analysis (reference value: 8.45 %); format: functional
HeLa [7] = test: Induction of apoptosis in human HeLa cells assessed as early apoptotic cells at 10 uM after 24 hrs by Annexin V FITC/propidium iodide staining based flow cytometric analysis (reference value: 8.45 %); format: functional
HeLa [8] = test: Induction of apoptosis in human HeLa cells assessed as early apoptotic cells after 24 hrs by Annexin V FITC/propidium iodide staining based flow cytometric analysis; format: functional, cell-based
HeLa [9] = test: Induction of apoptosis in human HeLa cells assessed as early apoptotic cells at 50 uM after 24 hrs by Annexin V FITC/propidium iodide staining based flow cytometric analysis (reference value: 8.45 %); format: functional
HeLa [10] = test: Induction of apoptosis in human HeLa cells assessed as late apoptotic cells after 24 hrs by Annexin V FITC/propidium iodide staining based flow cytometric analysis; format: functional, cell-based

Row | SMILES | IC50 (HeLa [1]) | CC50 [2] | IC50 (HepG2) | IC50 (MCF7) | Activity (HeLa [3]) | Activity (HeLa [4]) | Activity (HeLa [5]) | Activity (HeLa [6]) | Activity (HeLa [7]) | Activity (HeLa [8]) | Activity (HeLa [9]) | Activity (HeLa [10])
1 | COc1cccc(Cc2nnc(Cn3nnc4ccccc43)o2)c1 | 123 µM | > 100 µM | 350 µM | 241 µM | – | – | – | – | – | – | – | –
2 | Brc1ccc(Cc2nnc(Cn3nnc4ccccc43)o2)cc1 | 198 µM | > 100 µM | 357 µM | 277 µM | – | – | – | – | – | – | – | –
3 | COc1ccc(Cc2nnc(Cn3nnc4ccccc43)o2)cc1 | 150 µM | > 100 µM | 357 µM | 251 µM | – | – | – | – | – | – | – | –
4 | Fc1cccc(Cc2nnc(Cn3nnc4ccccc43)o2)c1 | 237 µM | > 100 µM | 368 µM | 357 µM | – | – | – | – | – | – | – | –
5 | Brc1ccc(-c2nnc(Cn3nnc4ccccc43)o2)cc1 | 305 µM | > 100 µM | 438 µM | 387 µM | – | – | – | – | – | – | – | –
6 | Clc1cccc(Cc2nnc(Cn3nnc4ccccc43)o2)c1 | 230 µM | > 100 µM | 401 µM | 292 µM | – | – | – | – | – | – | – | –
7 | COc1cccc(-c2nnc(Cn3nnc4ccccc43)o2)c1 | 243 µM | > 100 µM | 476 µM | 370 µM | – | – | – | – | – | – | – | –
8 | COc1ccc(-c2nnc(Cn3nnc4ccccc43)o2)cc1 | 269 µM | > 100 µM | 477 µM | 376 µM | – | – | – | – | – | – | – | –
9 | Brc1cccc(-c2nnc(Cn3nnc4ccccc43)o2)c1 | 301 µM | > 100 µM | 488 µM | 382 µM | – | – | – | – | – | – | – | –
10 | Clc1cccc(-c2nnc(Cn3nnc4ccccc43)o2)c1 | 327 µM | > 100 µM | 440 µM | 390 µM | – | – | – | – | – | – | – | –
11 | O=[N+]([O-])c1ccc(-c2nnc(Cn3nnc4ccccc43)o2)cc1 | 299 µM | > 100 µM | 483 µM | 13 µM | – | – | – | – | – | – | – | –
12 | c1ccc(Cc2nnc(Cn3nnc4ccccc43)o2)cc1 | 167 µM | > 100 µM | 369 µM | 258 µM | – | – | – | – | – | – | – | –
13 | O=[N+]([O-])c1ccc(Cc2nnc(Cn3nnc4ccccc43)o2)cc1 | 157 µM | > 100 µM | 367 µM | 253 µM | – | – | – | – | – | – | – | –
14 | COc1ccccc1-c1nnc(Cn2nnc3ccccc32)o1 | 216 µM | > 100 µM | 452 µM | 331 µM | – | – | – | – | – | – | – | –
15 | Brc1cccc(Cc2nnc(Cn3nnc4ccccc43)o2)c1 | 182 µM | > 100 µM | 398 µM | 269 µM | – | – | – | – | – | – | – | –
16 | COc1ccccc1Cc1nnc(Cn2nnc3ccccc32)o1 | 11 µM | > 100 µM | 334 µM | 15 µM | 20.79% | 35.86% | 19.6% | 9.86% | 23.57% | Dose-dependent effect | 36.18% | Dose-dependent effect
17 | Fc1cccc(-c2nnc(Cn3nnc4ccccc43)o2)c1 | 332 µM | > 100 µM | 451 µM | 398 µM | – | – | – | – | – | – | – | –
